Drawing on PubChem BioAssay (NCI), this text covers TGI and GI50 for ten compounds.

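48-hour exposure; five concentrations; linearly interpolated endpoints. GI50 = concentration required for 50% inhibition of growth. At the TGI there is no net growth.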

Some test systems named below: IGROV1 ovarian; HS 578T breast; DU-145 prostate; MDA-MB-435; TK-10 renal; SK-MEL-2 melanoma; A549 NSCLC; SNB-75 CNS.
Holding throughout (test): NCI-60 cell line screen, 48 h

In the case of `CC1(C)OC2C(=O)C=C(COCc3ccccc3)C2O1` (stereo not given), the TGI with IGROV1 ovarian was 53.5 µM; with HS 578T breast it was above 100 µM; in the experiment on DU-145 prostate it was above 100 µM; in the experiment on MDA-MB-435, 71.2 µM; in the experiment on TK-10 renal it was above 100 µM; with SK-MEL-2 melanoma it was above 100 µM. This compound also registered a TGI in the experiment on A549 NSCLC above 100 µM.
For `O=C(Nc1cccc(Nc2ncc(Br)c(NCCc3cnc[nH]3)n2)c1)N1CCCC1`, the GI50 is 3.23 µM in the experiment with IGROV1 ovarian; 1.28 µM in the experiment with SNB-75 CNS; 0.747 µM in the experiment with HS 578T breast; 7.08 µM with DU-145 prostate; 2.62 µM in the experiment on MDA-MB-435; 3.87 µM in the experiment with TK-10 renal. The GI50 in the experiment with SK-MEL-2 melanoma was 5.31 µM; in the experiment with A549 NSCLC it was 7.56 µM. The TGI with IGROV1 ovarian amounted to 28.8 µM; in the experiment on SNB-75 CNS it was 4.96 µM; in the experiment on HS 578T breast, 4.1 µM; in the experiment with DU-145 prostate it was 36.5 µM; in the experiment on MDA-MB-435 it was 18.5 µM; with TK-10 renal it was 20 µM. Also, the TGI was 19.4 µM in the experiment with SK-MEL-2 melanoma and above 67.1 µM in the experiment with A549 NSCLC.
For the compound `CN(CC(N)=O)C(=O)N(CCCl)N=O`, the TGI in the experiment on IGROV1 ovarian, with SNB-75 CNS, with HS 578T breast, in the experiment on DU-145 prostate, with MDA-MB-435 and in the experiment on TK-10 renal was above 100 µM each time. For the same compound, the TGI in the experiment on SK-MEL-2 melanoma and with A549 NSCLC was above 100 µM throughout.
On to `COc1ccc(OC)c(Cn2cc3c(c2)-c2oncc2CC3)c1`, for which the GI50 in the experiment on IGROV1 ovarian is 3.87 µM; with SNB-75 CNS, 1.75 µM; with HS 578T breast, 2.25 µM; with DU-145 prostate, 3.74 µM; in the experiment on MDA-MB-435, 0.316 µM; with TK-10 renal, 4.23 µM. Moreover, the GI50 was 2.03 µM with SK-MEL-2 melanoma and 4.42 µM with A549 NSCLC. In addition, the TGI with IGROV1 ovarian is above 100 µM; in the experiment with SNB-75 CNS it was 6.56 µM; with HS 578T breast, 8.32 µM; in the experiment on DU-145 prostate, above 64.3 µM; in the experiment on MDA-MB-435, 1.42 µM; in the experiment with TK-10 renal, above 100 µM. The TGI is 7.62 µM with SK-MEL-2 melanoma and above 100 µM in the experiment on A549 NSCLC.
For the compound `O=C1NC(=O)C(c2cccc(Cl)c2)=C1Nc1ccc(O)c(Cl)c1`, the GI50 in the experiment on IGROV1 ovarian was 12.9 µM; with SNB-75 CNS, 6.96 µM; in the experiment on HS 578T breast, 5.11 µM; with DU-145 prostate it was 14.1 µM; with MDA-MB-435 it was 3.28 µM; in the experiment with TK-10 renal, 8.66 µM. For the same compound, the figures for the GI50 in the experiment on SK-MEL-2 melanoma and with A549 NSCLC were 7.91 µM and 9.88 µM, respectively. The TGI in the experiment with IGROV1 ovarian is above 25 µM; in the experiment on SNB-75 CNS, above 20.4 µM; in the experiment with HS 578T breast, 19.3 µM; with DU-145 prostate it was above 25 µM; with MDA-MB-435 it was above 25 µM; in the experiment with TK-10 renal, above 25 µM. Also, the TGI with SK-MEL-2 melanoma was 22.5 µM; in the experiment with A549 NSCLC, above 25 µM.
With `Cc1cccc(NC(=O)c2sc3nc4c(cc3c2N)CN(Cc2ccccc2)CC4)c1C`, the GI50 in the experiment with IGROV1 ovarian is 0.337 µM; in the experiment with SNB-75 CNS, 0.112 µM; in the experiment on HS 578T breast it was 0.189 µM; in the experiment on DU-145 prostate it was 0.201 µM; with MDA-MB-435, 0.065 µM; with TK-10 renal, 5.36 µM. Also, the GI50 was 0.328 µM in the experiment on SK-MEL-2 melanoma and 0.381 µM with A549 NSCLC. Further, the TGI was above 50 µM in the experiment on IGROV1 ovarian; 0.419 µM in the experiment with SNB-75 CNS; above 50 µM in the experiment on HS 578T breast; above 50 µM with DU-145 prostate; 0.181 µM in the experiment with MDA-MB-435; above 50 µM in the experiment with TK-10 renal. The values for the TGI with SK-MEL-2 melanoma and with A549 NSCLC were 25.8 µM and above 50 µM, respectively.
On to `O=C(Oc1cccnc1)c1ccsc1Nc1ccnc(C(F)(F)F)c1`, for which the GI50 in the experiment on IGROV1 ovarian is 5.24 µM; in the experiment with SNB-75 CNS, 25.2 µM; in the experiment on DU-145 prostate, 24.6 µM; in the experiment on MDA-MB-435, 2.88 µM; in the experiment on TK-10 renal, 4.91 µM; with SK-MEL-2 melanoma it was 4.19 µM. Further, the GI50 with A549 NSCLC was 7.68 µM. The TGI is above 100 µM in the experiment on IGROV1 ovarian; above 100 µM in the experiment on SNB-75 CNS; above 100 µM in the experiment with DU-145 prostate; 11.8 µM in the experiment with MDA-MB-435; 93.7 µM in the experiment on TK-10 renal; above 100 µM with SK-MEL-2 melanoma. The TGI with A549 NSCLC is above 100 µM.
Consider `O=c1[nH]cnc2c(C3NC(CO)C(O)C3O)c[nH]c12` (stereo not given), for which the GI50 with IGROV1 ovarian, in the experiment with SNB-75 CNS, with HS 578T breast, with DU-145 prostate, in the experiment on MDA-MB-435 and with TK-10 renal was above 100 µM throughout. In addition, the GI50 in the experiment on A549 NSCLC is above 100 µM. Moreover, the TGI in the experiment with IGROV1 ovarian, in the experiment on SNB-75 CNS, with HS 578T breast, with DU-145 prostate, with MDA-MB-435 and in the experiment with TK-10 renal was above 100 µM in each case. The same compound registered a TGI with A549 NSCLC above 100 µM.
For the compound `COC1O[C@@H]2C[C@H]3C(C)(C)CCC[C@]3(C)C3=CCCC1[C@@]32C` (stereo not given in full), the GI50 with IGROV1 ovarian, in the experiment with SNB-75 CNS, with HS 578T breast, in the experiment with DU-145 prostate, in the experiment with MDA-MB-435 and in the experiment on TK-10 renal was above 100 µM throughout. In addition, the GI50 in the experiment with A549 NSCLC was above 100 µM. Further, the TGI in the experiment on IGROV1 ovarian, in the experiment with SNB-75 CNS, in the experiment on HS 578T breast, with DU-145 prostate, with MDA-MB-435 and in the experiment with TK-10 renal was above 100 µM each time. The TGI with A549 NSCLC was above 100 µM.
Turning to `C#CCOc1cccc(Nc2ncnc3c(NC(=O)CCl)cccc23)c1`, the GI50 in the experiment on IGROV1 ovarian was 17 µM; in the experiment with HS 578T breast, 24.2 µM; in the experiment with DU-145 prostate, 17.2 µM; in the experiment on MDA-MB-435 it was 26.2 µM; with TK-10 renal it was 40.1 µM; in the experiment on SK-MEL-2 melanoma, 21.1 µM. Besides, the GI50 in the experiment on A549 NSCLC is 22.1 µM. Further, the TGI with IGROV1 ovarian is 37.9 µM; in the experiment with HS 578T breast it was 77.4 µM; with DU-145 prostate, 37.8 µM; with MDA-MB-435, above 100 µM; in the experiment with TK-10 renal it was above 100 µM; with SK-MEL-2 melanoma it was 60.8 µM. For the same compound, the TGI in the experiment on A549 NSCLC was found to be 49.9 µM.
